From patent US20250382657A1, “METHODS FOR MAPPING BINDING SITES OF COMPOUNDS” (Cambridge Enterprise Limited, priority 2022, published 2025)

How the values were obtained:
BRD4 [1] = target: T1, BRD4 (Homo sapiens, UniProt O60885); details: K562 cells; published data; cited from earlier work
T1 construct: U-2 OS and K562 suspension cells were harvested by centrifugation and fixed in 0.1% formaldehyde; endogenous in cells; host or cells: K562 (human leukaemia) and U-2 OS cells

dsDNA = test: FRET-melting assay; format: binding; details: 1 μM; negative control dsDNA; n=2
Protocol: 400 nM FAM-TAMRA dual-labelled oligonucleotides (Biomers) were annealed in assay buffer (60 mM potassium cacodylate, pH=7.4) at 95° C. for 5 min followed by gradually cooling to 20° C. A series of probe concentrations were prepared in a 8-well strip tube: 150 μL of 6 μM ligand in assay buffer was prepared as the initial concentration. Subsequent serial dilutions were made by adding 100 μL of probe solutions to 50 μL of assay buffer, resulting in 12 concentrations including a control (1% DMSO). 25 μL per solutions were transferred to 96-well plate, followed by adding 25 μL of annealed oligonucleotide solutions to each well. The plate was then sealed with an adhesive transparent cover and shaken gently for 10 min at room temperature. Measurements of restoring FAM signal were recorded on a Bio-Rad CFX96 Touch Real-Time PCR Detection System employing a temperature gradient from 25° C. to 95° C. at 0.5° C./min. Melting temperatures were determined by the first derivative maxima of relative fluorescence unit (RFU) value against […], and ΔTm was calculated by baseline correction of melting temperatures subtracting control group. A one-site binding model in GraphPad Prism 7 was utilised to fit FRET Tm curves. Mean was calculated from two replicates.

BRD4 [2] = target: T1, BRD4; test: Chemmap genome-wide mapping of JQ1 binding sites, compared with BRD4 CUT&Tag; details: 150,000 K562 cells; JQ1-bio probe
Protocol: BRD4 CUT&Tag was performed as described before (H.S. Kaya-Okur, et al. Nat. Protoc., 15 (2020) e23641). Briefly, cells were incubated with activated concanavalin A-coated magnetic beads (Bangs Labs, BP531). The bead-bound cells were permeabilized and incubated with anti-BRD4 (E2A7X) rabbit antibody (Cell Signalling Technology, 13440), followed by rabbit anti-mouse IgG antibody (Antibodies-Online, ABIN101961, RRID:AB_10775589). Diluted pA-Tn5 adapter complex was then added followed by the tagmentation reaction. Extracted DNA fragments were used for library preparation and Illumina sequencing.

DNA G-quadruplex [3] = test: Chemmap genome-wide mapping of G4 ligand binding sites (PDS, PhenDC3); design: species or system human; details: K562 cells; biotinylated probes
Protocol: (§1) Cell preparation. U-2 OS cells were detached using accutase and immediately quenched using complete culture media. U-2 OS and K562 suspension cells were harvested by centrifugation and fixed in 0.1% formaldehyde (Thermo Scientific, 28906) in PBS for 2 min at room temperature, followed by quenching with glycine to a final concentration of 75 mM. Fixed cells were collected by centrifugation at 600×g for 4 min, followed by resuspension in cold wash buffer (20 mM HEPES pH7.5, 150 mM NaCl and 0.5 mM spermidine (Sigma, S0266)) in nuclease-free water supplemented with a complete Protease Inhibitor, EDTA-free (Sigma, 11873580001). (Note: For Chemmap of G4 ligands NaCl was replaced by equivalent concentrations of KCl in all buffers to maintain G4 stability. For optimal results, the concentration of cells needs to be adjusted based on target abundance and relative affinity of the probes. We employed cells at 1500 cells/μL (JQ1-bio) and 6000 cells/μL (G4 ligands and biotinylated doxorubicin))
(§2) Probe-1st Ab complex assembly. Compound stock solution in DMSO was diluted to 10 μM in antibody buffer (2 mM EDTA, 0.1% BSA (Sigma, A8577), 0.05% digitonin (EMD Millipore, 300410) in wash buffer). […]

DNA G-quadruplex [4] = test: PDS Chemmap after treatment of live K562 cells with unmodified PDS (competition); format: cell-based, human; details: unmodified PDS 4 μM for 3 hr
Protocol: as §1, §2

genomic DNA = test: Chemmap genome-wide mapping of biotinylated doxorubicin binding sites; design: species or system human; details: K562 cells
Protocol: as §1
Probe-1st Ab complex assembly. Compound stock solution in DMSO was diluted to 10 μM in antibody buffer (2 mM EDTA, 0.1% BSA (Sigma, A8577), 0.05% digitonin (EMD Millipore, 300410) in wash buffer). For 5 samples, 20 μL probe solution (10 μM) and 16.7 μL anti-biotin (D5A7) Rabbit mAb (Cell Signaling Technology, 5597, concentration is ˜10 μM) were added to 200 μL antibody buffer and incubated on ice for 1 h to perform a complex at high concentration (probe in excess 1.2:1 to avoid non-specific antibody binding). […]
Bead capture. For 5 samples, 50 μL (JQ1-bio) or 75 μL (G4 ligands and biotinylated Doxorubicin) concanavalin A beads (Bangs Labs, BP531) were washed twice in 1 mL binding buffer (20 mM HEPES pH 7.5, 10 mM KCl, 1 mM CaCl2, 1 mM MnCl2 in nuclease-free water) and resuspended in 75 μL binding buffer. 100 µL of cell suspension were incubated with 10 μL pre-washed concanavalin A beads at 25° C. for 10 min at 600 rpm. Beads-bound cells were gently washed twice with wash buffer, before resuspending in 100 μL probe-1st Ab solution and incubating at 4° C. overnight at 600 rpm.
2nd Ab-Tn5 transposome complexes assembly. For 5 samples, 2.5 μL 2nd Ab (Antibodies-Online, ABIN101961, RRID:AB_10775589) and 5 μL pA-Tn5 were added to 200 μL Dig-300 buffer (20 mM HEPES pH 7.5, 300 mM NaCl, 0.5 mM spermidine, 0.01% digitonin in nuclease-free water supplemented with Complete Protease Inhibitor, EDTA-free) and incubated on ice for 1 h. 300 μL antibody buffer were added to the 2nd-Tn5 complexes solution. (2nd Ab-Tn5 complexes at a ratio of 2:1).
Tagmentation. Cells were washed 3× with 500 μL Dig-wash buffer (0.05% digitonin in wash buffer) and resuspended in 100 μL 2nd Ab-Tn5 transposome solution and incubated at 25° C. for 1 h at 600 rpm. […]

K562 cells = test: Dox-bio1 Chemmap in Tucidinostat-treated K562 cells; format: cell-based, human; details: Tucidinostat 1 μM, 72 h
Text: Mycoplasma-free human chronic myelogenous leukemia K562 cells (RRID:CVCL_0004) derived from a person were purchased from ATCC and cultured in RPMI 1640 (Gibco, 21875034) supplemented with 10% heat-inactivated fetal bovine serum (FBS, Gibco, A3840401). Human bone osteosarcoma epithelial U-2 OS cells (RRID:CVCL_0042) derived from a moderately differentiated sarcoma of the tibia of a person osteosarcoma were obtained from ATCC and cultured in DMEM (Gibco, 41966029) supplemented with 10% FBS. Both cell lines were grown in accordance with ENCODE cell culture protocols and periodically tested for mycoplasma contamination and identity confirmed by short tandem repeat (STR) typing. HDAC inhibitors (HDACi) were prepared at 10 mM as stock solution in DMSO. Cells were treated with HDACi dissolved to 1 μM final concentration or an equal concentration of vehicle (0.1% DMSO) for 72 hs.
Cell preparation. U-2 OS cells were detached using accutase and immediately quenched using complete culture media. U-2 OS and K562 suspension cells were harvested by centrifugation and fixed in 0.1% formaldehyde (Thermo Scientific, 28906) in PBS for 2 min at room temperature, followed by quenching with glycine to a final concentration of 75 mM. […]

Q: Which “signal averaged at BRD4 CUT&Tag high confidence loci” value (BRD4 [1]) does the source give for Cc1sc2c(c1C)C(c1ccc(Cl)cc1)=N[C@@H](CC(=O)NCCCNC(=O)OC1CC/C=C\CCC1)c1nnc(C)n1-2 (stereo partly shown) [JQ1-TCO] here?
A: close to the baseline

Q: For NCCOc1cc(NC(=O)c2cc(OCCNC(=O)CCOCCOCCOCCOCCNC(=O)CCCC[C@@H]3SC[C@@H]4NC(=O)N[C@@H]43)cc(C(=O)Nc3cc(OCCN)c4ccccc4n3)n2)nc2ccccc12 [PDS-bio], which ΔTm on dsDNA (dsDNA) is on record?
A: 0 °C

Q: Which “JQ1 binding sites observed in each experiment” value (BRD4 [2]) does the source give for Cc1sc2c(c1C)C(c1ccc(Cl)cc1)=N[C@@H](CC(=O)NCCOCCOCCNC(=O)CCCC[C@@H]1SC[C@@H]3NC(=O)N[C@@H]31)c1nnc(C)n1-2 [JQ1-bio] here?
A: around 10,000

Q: Which “overlap of high confidence binding sites with G4-seq data (OQS)” value (DNA G-quadruplex [3]) does the source give for C[n+]1cc(NC(=O)c2ccc3ccc4ccc(C(=O)Nc5cc6ccccc6[n+](C)c5)nc4c3n2)cc2ccccc21 [PhenDC3] here?
A: ~88%

Q: What about the ΔTm on dsDNA (dsDNA) of the same compound?
A: 0 °C

Q: Which ΔTm on dsDNA (dsDNA) does the source give for C[n+]1cc(NC(=O)c2ccc3ccc4c(NCCCCNC(=O)CCc5cn(CCOCCOCCOCCNC(=O)CCCC[C@@H]6SC[C@@H]7NC(=O)N[C@@H]76)nn5)cc(C(=O)Nc5cc6ccccc6[n+](C)c5)nc4c3n2)cc2ccccc21 [PhenDC3-bio] here?
A: 0 °C

Q: Which results are given for NCCOc1cc(C(=O)Nc2cc(OCCN)c3ccccc3n2)nc(C(=O)Nc2cc(OCCN)c3ccccc3n2)c1 [PDS, Pyridostatin]?
A: overlap of high confidence binding sites with G4-seq data (OQS) (DNA G-quadruplex [3]): ~89%; ΔTm on dsDNA (dsDNA): 0 °C; PDS Chemmap sites lost compared to untreated (DNA G-quadruplex [4]): ~6000; PDS Chemmap sites lost compared to untreated (percent) (DNA G-quadruplex [4]): 60%

Q: With COc1cccc2c1C(=O)c1c(O)c3c(c(O)c1C2=O)C[C@@](O)(C(=O)COC(=O)CCCC(=O)NCCOCCOCCOCCOCCNC(=O)CCCC[C@H]1SC[C@H]2NC(=O)N[C@H]21)C[C@@H]3O[C@H]1C[C@H](N)[C@H](O)[C@H](C)O1 [Dox-bio1] as the compound, how does the “material recovered compared to other tested probes” value (genomic DNA; 200 nM, same condition) read?
A: up to 30 fold

Q: What about the “consensus peaks for both Dox-bio1 and ATAC-seq” value (genomic DNA) of the same compound?
A: 12,896

Q: What about the “peaks located in open chromatin regions mapped by ATAC-seq” value (genomic DNA) of the same compound?
A: 95%

Q: What about the “high confidence Dox-bio1 binding sites” value (genomic DNA; depending on the probe concentration) of the same compound?
A: around 14k

Q: Which “effect on doxorubicin binding (differential binding analysis)” value (K562 cells) does the source give for Nc1cc(F)ccc1NC(=O)c1ccc(CNC(=O)/C=C/c2cccnc2)cc1 [Tucidinostat] here?
A: enhances the binding of doxorubicin

Q: What about the “Dox-bio1 binding sites within initial open chromatin region” value (K562 cells; 95% in vehicle group) of the same compound?
A: 42%
